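96-well plates; 48 h exposure; 5 concentrations. Endpoints by linear interpolation between flanking doses. Not reached: highest tested concentration assigned. GI50 = concentration required for 50% inhibition of growth. Definition used: TGI = concentration required for complete inhibition of growth.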
What was measured:
Experiment in all cases: DTP human tumour cell line panel, 48 h
SN12C renal = test system: SN12C renal
RPMI-8226 leukemia = test system: RPMI-8226 leukemia
ACHN renal = test system: ACHN renal
CAKI-1 renal = test system: CAKI-1 renal
HOP-92 NSCLC = test system: HOP-92 NSCLC
SK-MEL-5 melanoma = test system: SK-MEL-5 melanoma
OVCAR-3 ovarian = test system: OVCAR-3 ovarian
IGROV1 ovarian = test system: IGROV1 ovarian
SNB-19 CNS = test system: SNB-19 CNS
SR leukemia = test system: SR leukemia

Compound	GI50 (SN12C renal) [µM]	TGI (SN12C renal) [µM]	GI50 (RPMI-8226 leukemia) [µM]	TGI (RPMI-8226 leukemia) [µM]	GI50 (ACHN renal) [µM]	TGI (ACHN renal) [µM]	GI50 (CAKI-1 renal) [µM]	TGI (CAKI-1 renal) [µM]	GI50 (HOP-92 NSCLC) [µM]	TGI (HOP-92 NSCLC) [µM]	GI50 (SK-MEL-5 melanoma) [µM]	TGI (SK-MEL-5 melanoma) [µM]	GI50 (OVCAR-3 ovarian) [µM]	TGI (OVCAR-3 ovarian) [µM]	GI50 (IGROV1 ovarian) [µM]	TGI (IGROV1 ovarian) [µM]	GI50 (SNB-19 CNS) [µM]	TGI (SNB-19 CNS) [µM]	TGI (SR leukemia) [µM]	GI50 (SR leukemia) [µM]
O=C(NCCc1ccccc1)C(c1ccccc1)(c1ccccc1)c1ccccc1	1.8	5.96	15.9	> 100	3.13	9.35	4.16	26.1	> 100	> 100	8.97	21.4	5.78	> 100	28.8	70	7.27	> 100		
Cc1ccc(-n2c3nc(=O)n(C)c(=O)c-3nc3ccccc32)cc1		34		54.6		49.2		70.7				26.2		17.6		92.1		33.5		
COc1cc2c3c(c4ccc(OC)c(OC)c4c2cc1OC)CN1CCC[C@@H]1C3		18				3.55		1.1		0.616		0.324		16.6		0.935		0.0826		
O=C(CSc1nc2ccccc2nc1-c1ccccc1)Nc1ccc(Cl)cc1	22.6	99.2	92.3	> 100	12.3	47.1	12.5	38.1	15.4	63.5	19.3	> 100	13.1	40.3	46.4	> 100	35.9	> 100		
Sc1ccc2ccccc2c1CNCc1ccccc1		25.7		31.9		57.9		43.8				25.3		31.4		6.97		> 100	15.4	
O=Nc1ccc(O)c2ccccc12	1.38	3.22	2.4	7.58	1.69	3.14	1.63	4.03	3.31	9.01	1.65	3.04	0.25	0.643	1.51	3.29	2.31	6.65		
O=C1/C(=C\c2ccc(F)cc2)CN(C(=O)c2ccc([N+](=O)[O-])cc2)C/C1=C\c1ccc(F)cc1	2.19	6.55	0.302	1.62	2.46	7.49	6.64	> 100	11.4	> 100	1.69	3.84	2.69	7.53	2.67	11	3.58	49.1		
Cc1ccc(S(=O)(=O)Oc2ccc([N+](=O)[O-])cc2[N+](=O)[O-])cc1	3.78	17.3	2.45	7.84	7.64	22.5	2.03	4.27	4.34	21.7	3.26	12.5	3.24	11.5	2.46	8.37	17.2	38.1		
CCOC(=O)C1(C#N)C(c2ccccc2)CC(O)(c2ccc([N+](=O)[O-])cc2)C(C(=O)c2ccc([N+](=O)[O-])cc2)C1c1ccccc1 (stereo unspecified)		> 100		> 100		> 100		> 100						> 100		> 100		> 100	> 100	
COc1ccc2c(c1O)C(=O)C(CCC(=O)O)CC2 (stereo unspecified)		> 100		> 100		> 100		> 100		> 100		> 100		> 100		> 100		> 100		
CC(C)N(C(=O)C1(C)CC1)C(C)C		> 100		> 100		> 100		> 100		> 100		> 100		> 100		> 100		> 100		
C[N+](C)(C)CC(=O)N/N=C(\CCC(=O)NCCc1ccccc1)CC(=O)c1ccccc1		> 100		> 100		> 100		> 100		> 100		> 100		> 100		> 100		> 100		
NCCCCCCCCn1c2c(c3ccccc3c1=O)C(=O)c1ccccc1-2	3.45	11.3	4.02	23.7	4.07	14	3.25	9.03	2.4	8.47	1.91	3.94	3.5	11.6			5.9	80.8		
O=C1Nc2cc(Cl)ccc2N=CC1NC(=O)C(c1ccccc1)c1ccccc1Cl (stereo unspecified)		> 100		> 100		> 100		> 100		> 100		> 100		> 100		> 100		> 100		
COc1ccccc1-c1cc(/C=C2\C(=O)Nc3ncc(Br)cc32)cc(Br)c1O	12.1	> 25	9.59	> 25	11.7	> 25	10.1	> 25	1.21	> 25	11.4	> 25	9.51	> 25	10.4	> 25	12.5	> 25		
Nc1ccccc1SC(CC(=O)c1ccccc1)c1ccc([N+](=O)[O-])cc1 (stereo unspecified)	11.6	23.8	2.91	9.06	11.8	24.2	15.2	28.8			15.6	29.4	11.4	23.7	5.69	21.6	12.2	24.6	7.38	2.57
C=CCCOC(=O)CO[N+](=O)[O-]		> 100		> 100		> 100		> 100						> 100		> 100		> 100	> 100	
COc1cc(OC)c2ssc3c(OC)cc(OC)c4ssc1c2-c43		> 100				> 100		> 100				> 100		> 100		> 100		> 100		
